Laboratory results reported in PubChem BioAssay AID1794828.
pIC50: −log10 of the molar value.

Target: Solute carrier family 2, facilitated glucose transporter member 4 (Homo sapiens) (UniProt P14672)
Assay: SLC2A4-mediated glucose transport modulation – cell-based, flow cytometry, glucose FRET sensor, HEK293 JumpIN TRex, wild type, dose response (AID 1794828)
Conditions: HEK293 JumpIN SLC2A4-OE

Solute carrier family 2, facilitated glucose transporter member 4 (Homo sapiens), sequence (P14672 whole entry, looked up): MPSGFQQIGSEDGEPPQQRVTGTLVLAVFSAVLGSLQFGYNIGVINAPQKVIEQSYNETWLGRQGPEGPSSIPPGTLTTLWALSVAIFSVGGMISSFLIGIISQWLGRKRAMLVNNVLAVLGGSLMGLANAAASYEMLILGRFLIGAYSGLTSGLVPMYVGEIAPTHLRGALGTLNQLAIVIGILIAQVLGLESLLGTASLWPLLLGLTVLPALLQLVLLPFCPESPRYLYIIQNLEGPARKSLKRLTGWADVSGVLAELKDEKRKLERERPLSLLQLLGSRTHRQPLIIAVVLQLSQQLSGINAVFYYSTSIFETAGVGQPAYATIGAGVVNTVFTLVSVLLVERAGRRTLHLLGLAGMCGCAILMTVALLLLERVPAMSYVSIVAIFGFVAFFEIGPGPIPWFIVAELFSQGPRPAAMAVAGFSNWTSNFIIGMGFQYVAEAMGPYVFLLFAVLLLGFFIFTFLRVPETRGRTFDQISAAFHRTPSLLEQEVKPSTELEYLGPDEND

| Compound | pIC50 | EC50 (substrate uptake, increase) [µM] |
| --- | --- | --- |
| Cc1c(NC(=O)c2cc(C(N)=O)nc3cc(F)ccc23)c(C(F)(F)F)nn1Cc1ccc(C#N)cc1 | 5.26 |  |
| O=C(Oc1cccc(F)c1OC(=O)c1cccc(O)c1)c1cccc(O)c1 | 5.60 |  |
| OC[C@H]1OC(O)[C@H](O)[C@@H](O)[C@@H]1O (stereo partly drawn) |  | 860 |
